Assay results: patent US20160038518A1, “METHODS FOR TREATING PSORIASIS AND VASCULAR INFLAMMATION” (VASCULAR BIOGENICS LTD., priority 2012, published 2016)
“And” between values parts separate entries of the source, which are not always exact repeats. Identical values can stand only once. Like-named read-outs stand apart in the source and are kept apart here.

Tests used:
[1] = test system: patients with moderate to severe plaque psoriasis; experiment: safety evaluation in the Phase II clinical study; assay type: in vivo, human
Description: (§1) The efficacy analyses were performed on the data from a modified intention-to-treat (MITT) population (defined as all patients randomized who received at least one dose of medication and had at least one efficacy evaluation). The safety analyses were performed on all randomized patients who received at least one dose of the drug.

[2] = test system: LPS and Pam3CSK4 signaling; experiment: LPS and Pam3CSK4 signaling in human monocytes; assay type: cell-based; conditions: FIG. 1B
humans = experiment: tolerability of daily dose in human clinical studies; assay type: in vivo
[3] = test system: inflammation associated with the breast implants; experiment: 18-FDG PET/CT of a patient with breast implants; assay type: in vivo, human; conditions: one patient, 20 mg/day, 12 weeks, FIG. 6
Description: A patient with breast implants was treated with VD-201 at 20 mg/day for 12 weeks. PET-CT scans were done at baseline and at 12 weeks, using positron emission computed tomography (PET/CT) imaging quantifying 18-fluorodeoxyglucose (18-FDG) uptake as a TBR as described in Example 1.

[4] = Description: Additional criteria included change in affected body surface area from baseline to week 12, change in PGA score from baseline to week 12, any change relative to baseline PASI score, and change in Patient Psoriasis Global Assessment (PtGA) score from baseline to week 12. Blood samples were taken at weeks 4, 8 and 12, in order to assess VB-201 pharmacokinetics, as well as plasma cytokine levels. Safety of VB-201 administration was evaluated by physical examination, incidence of adverse effects, vital signs, clinical chemistry, hematology, urinalysis and electrocardiograms.
[5] = test system: moderate to severe plaque psoriasis; experiment: randomized, double-blind Phase II clinical study in plaque psoriasis (PGA, PtGA, PASI); assay type: in vivo, human; conditions: for average reduction of PASI score: 12 weeks
Description: Patients were screened for eligibility and, up to 28 days later, at the baseline visit, randomized to one of three treatment groups (1:1:1): VB-201 20 mg/day: VB-201 80 mg/day: placebo/day. Patients consumed 2 capsules per day (VB-201 20 mg+placebo, VB-201 40 mg+40 mg, or 2× placebo). To ensure that the treatment assignments were concealed, all patients received 2 matching capsules of VB-201 or placebo.
as §1
A randomized, double-blind Phase II clinical study was performed in subjects with moderate to severe plaque psoriasis, in order to determine the efficacy of VB-201 in treating this condition. […] Patients underwent a wash-out period following any previous treatments. After screening and establishment of a baseline, eligible subjects were randomly assigned to receive 20 mg per day VB-201, 80 mg per day VB-201 or a daily placebo, for a period of 12 weeks.
Doses were administered orally at breakfast time with food. The maximal dose of VB-201 (80 mg/day) was determined according to earlier tolerability results (see, e.g., Example 4 of WO2011/083465).
Efficacy of each dosage level of VB-201 relative to placebo was determined according to the percentage of patients which achieved at least a 50% or 75% improvement over baseline PASI score at week 12.
Statistical comparisons were performed using a two-sided comparison with a 5% level of significance. All analyses were performed using Statistical Analysis Software (SAS®) Version 9.2.
Categorical analyses of Physician's Global Assessment and Patient's Psoriasis Global Assessment scores at Baseline, Week 8 and Week 12 were analyzed.
The Physician's Global Assessment (PGA) score was based on a 5-point scale with possible outcomes 0=clear, 1=almost clear, 2=mild, 3=moderate and 4=severe.
The Patient's Psoriasis Global Assessment (PtGA) score was based on a 6-point scale with possible outcomes 0=clear, 1=almost clear, 2=mild, 3=moderate, and 4 severe and 5=worst psoriasis has ever been.
The analyses that follow use the categorical nature of the PGA and PtGA, i.e. the 5-point or 6-point ordered scale which was considered more relevant than a continuous approach.
The proportion of patients with baseline, week 8 and week 12 PGA scores 0-3 vs. 4 (Clear or Almost Clear or Mild or Moderate vs. Severe) and PtGA scores of 0-2 vs. 3-5 (Clear or Almost Clear or Mild vs. Moderate or Severe or Worse).
Pairwise comparisons between placebo and each active dose group was made using Fisher's exact tests at the 5% level of significance.

## CCCCCCCCCCCCCCCCOC[C@H](COP(=O)([O-])OCC[N+](C)(C)C)OCCCCC(=O)O [VB-201, 1-hexadecyl-2-(4′-carboxy)butyl-sn-glycero-3-phosphocholine]
[1]; 80 mg/day
  severity of diarrhea cases: mild (Grade 1) and transient
[1]; 80 mg/day (placebo 6.8%)
  diarrhea rate: 15.3%
[1]; PET-CT sub-study, 20 or 80 mg/day, 12 weeks
  safety and tolerability: safe and well tolerated
[1]; doses of 20 mg/day and 80 mg/day
  tolerability: well tolerated
[1]; main study, 2 subjects
  overall rate of Serious Adverse Events: 1.6%
[1]; main study, 12 weeks
  deaths on therapy: No deaths occurred on therapy
  related Serious Adverse Events: No related Serious Adverse Events were observed
[1]; on VB-201, 4 subjects
  overall rate of discontinuation due to Adverse Events: 3.2%
[2]
  inhibition of LPS and Pam3CSK4 signaling: inhibition of LPS and Pam3CSK4 signaling
humans; higher dose (e.g., 160 mg/day) in multiple sub-doses e.g. 12 hours apart, each about 80 mg or less
  gastrointestinal events: largely avoided
humans; humans, single daily dose
  tolerability: well tolerated up to a dose of about 80 mg/day
humans; larger doses (e.g., 160 mg/day) as a single daily dose
  gastrointestinal events (G-I intolerance, mainly nausea and vomiting): associated with certain gastrointestinal events
[3]
  inflammation surrounding the breast implants (18-FDG uptake): reduced inflammation surrounding the breast implants
[4]; patients in quartile 1
  mean VB-201 trough level: about 0 ng/mL
[4]; patients in quartile 4
  mean VB-201 trough level: about 3,640 ng/mL
[5]; 20 mg
  PGA decrease from baseline to week 12 versus placebo: statistically superior to that with placebo
[5]; 20 mg and 80 mg groups combined vs placebo, p=0.049, CI=1.00-3.65
  PGA odds ratio, ordered logistic regression under the proportional odds model: 1.91
[5]; 20 mg, p=0.12
  Patient Global Assessment decrease from baseline to week 12 versus placebo: trend for efficacy
[5]; 20 mg/day, Baseline
  PGA 0-3 (No/Almost Clear/Mild/Mod), % of patients: 83.87%
  PGA 0-3 (No/Almost Clear/Mild/Mod), Freq.: 52
  PGA 4 (Severe), % of patients: 16.13%
  PGA 4 (Severe), Freq.: 10
  PtGA 0-2 (No/Almost Clear/Mild), % of patients: 11.29%
  PtGA 0-2 (No/Almost Clear/Mild), Freq.: 7
  PtGA 3-5 (Mod/Severs/Worse), % of patients: 88.71%
  PtGA 3-5 (Mod/Severs/Worse), Freq.: 55
[5]; 20 mg/day, Week 8
  PGA 0-3 (No/Almost Clear/Mild/Mod), % of patients: 96.8%
  PGA 0-3 (No/Almost Clear/Mild/Mod), Freq.: 60
  PGA 4 (Severe), % of patients: 3.2% and 3.23%
  PGA 4 (Severe), Freq.: 2
  PtGA 0-2 (No/Almost Clear/Mild), % of patients: 32.26%
  PtGA 0-2 (No/Almost Clear/Mild), Freq.: 20
  PtGA 3-5 (Mod/Severs/Worse), % of patients: 67.74%
  PtGA 3-5 (Mod/Severs/Worse), Freq.: 42
[5]; 20 mg/day, Week 12/EOT
  PGA 0-3 (No/Almost Clear/Mild/Mod), % of patients: 95.16%
  PGA 0-3 (No/Almost Clear/Mild/Mod), Freq.: 59
  PGA 4 (Severe), % of patients: 4.8% and 4.84%
  PGA 4 (Severe), Freq.: 3
  PtGA 0-2 (No/Almost Clear/Mild), % of patients: 30.65%
  PtGA 0-2 (No/Almost Clear/Mild), Freq.: 19
  PtGA 3-5 (Mod/Severs/Worse), % of patients: 69.35%
  PtGA 3-5 (Mod/Severs/Worse), Freq.: 43
[5]; 80 mg
  PGA decrease from baseline to week 12 versus placebo: trend for efficacy
[5]; 80 mg vs. placebo, p=0.047, CI=1.01-3.80
  Patient Global Assessment odds ratio, ordered logistic regression under the proportional odds model: 1.96
[5]; 80 mg, p=0.02
  Patient Global Assessment decrease from baseline to week 12 versus placebo: statistically superior to that with placebo
[5]; 80 mg/day, Baseline
  PGA 0-3 (No/Almost Clear/Mild/Mod), % of patients: 79.31%
  PGA 0-3 (No/Almost Clear/Mild/Mod), Freq.: 46
  PGA 4 (Severe), % of patients: 20.69%
  PGA 4 (Severe), Freq.: 12
  PtGA 0-2 (No/Almost Clear/Mild), % of patients: 11.86%
  PtGA 0-2 (No/Almost Clear/Mild), Freq.: 7
  PtGA 3-5 (Mod/Severs/Worse), % of patients: 88.14%
  PtGA 3-5 (Mod/Severs/Worse), Freq.: 52
[5]; 80 mg/day, Week 8
  PGA 0-3 (No/Almost Clear/Mild/Mod), % of patients: 91.53%
  PGA 0-3 (No/Almost Clear/Mild/Mod), Freq.: 54
  PGA 4 (Severe), % of patients: 8.5% and 8.47%
  PGA 4 (Severe), Freq.: 5
  PtGA 0-2 (No/Almost Clear/Mild), % of patients: 33.90%
  PtGA 0-2 (No/Almost Clear/Mild), Freq.: 20
  PtGA 3-5 (Mod/Severs/Worse), % of patients: 66.1%
  PtGA 3-5 (Mod/Severs/Worse), Freq.: 39
[5]; 80 mg/day, Week 12/EOT
  PGA 0-3 (No/Almost Clear/Mild/Mod), % of patients: 93.22%
  PGA 0-3 (No/Almost Clear/Mild/Mod), Freq.: 55
  PGA 4 (Severe), % of patients: 6.8% and 6.78%
  PGA 4 (Severe), Freq.: 4
  PtGA 0-2 (No/Almost Clear/Mild), % of patients: 38.98%
  PtGA 0-2 (No/Almost Clear/Mild), Freq.: 23
  PtGA 3-5 (Mod/Severs/Worse), % of patients: 61.0% and 61.02%
  PtGA 3-5 (Mod/Severs/Worse), Freq.: 36
[5]; PGA p=0.04, PtGA p=0.001, FIG. 10
  correlation between VB-201 plasma levels and PASI, PGA and PtGA efficacy endpoints: statistically significant dose response
[5]; baseline PASI 14.3-18.5, age ≦46 years, BSA 16%-24%, psoriasis up to 20 years, no previous immunosuppressants or biologicals, elevated baseline hs-CRP
  efficacy compared to placebo in subgroups (exploratory analyses): greater trends for efficacy
[5]; over 3 months of treatment
  time course of the efficacy endpoints: continued to improve overtime and had not reached a plateau at 3 months
[5]; patients in quartile 1 of trough level
  average reduction of PASI score: about 18%
[5]; patients in quartile 4 of trough level, p=0.009
  average reduction of PASI score: about 45%
[5]; sub-population with baseline PASI score of about 14.3 to about 18.5, FIG. 9
  percent change from baseline in PASI at 12 weeks versus trough level: significantly dependent on the trough level of VB-201
[5]; week 12
  PASI 50 response rates and reductions in BSA compared to placebo: Trends for favorable efficacy
